Laboratory results taken from PubChem BioAssay (NCI).
Several values for one entry are separate records, joined by “and”; a condition that tells them apart may be missing. Identical values can stand only once.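 Values below derive from 48-hour exposures of cells grown in 96-well plates, with endpoints linearly interpolated between the two concentrations bracketing the appropriate inhibition level. At the GI50, growth is halved. TGI denotes the concentration required for complete inhibition of growth.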

What was measured:
Assay in all cases: NCI tumour cell line growth inhibition, 48 h
CCRF-CEM leukemia = system: CCRF-CEM leukemia
HCT-15 colon = system: HCT-15 colon
HL-60(TB) leukemia = system: HL-60(TB) leukemia
IGROV1 ovarian = system: IGROV1 ovarian
MOLT-4 leukemia = system: MOLT-4 leukemia
NCI-H23 lung = system: NCI-H23 lung
OVCAR-4 ovarian = system: OVCAR-4 ovarian
SN12C renal = system: SN12C renal
U251 CNS = system: U251 CNS
UO-31 renal = system: UO-31 renal

| Structure (SMILES) | GI50 (CCRF-CEM leukemia) | TGI (CCRF-CEM leukemia) | GI50 (HCT-15 colon) | TGI (HCT-15 colon) | GI50 (HL-60(TB) leukemia) | TGI (HL-60(TB) leukemia) | GI50 (IGROV1 ovarian) | TGI (IGROV1 ovarian) | GI50 (MOLT-4 leukemia) | TGI (MOLT-4 leukemia) | GI50 (NCI-H23 lung) | TGI (NCI-H23 lung) | GI50 (OVCAR-4 ovarian) | TGI (OVCAR-4 ovarian) | GI50 (SN12C renal) | TGI (SN12C renal) | GI50 (U251 CNS) | TGI (U251 CNS) | GI50 (UO-31 renal) | TGI (UO-31 renal) |
| --- | --- | --- | --- | --- | --- | --- | --- | --- | --- | --- | --- | --- | --- | --- | --- | --- | --- | --- | --- | --- |
| O=C(CN(C1CCCCC1)C1CCCCC1)Nc1ccc(S(=O)(=O)c2ccc(NC(=O)CN(C3CCCCC3)C3CCCCC3)cc2)cc1 | 0.222 µM | 1.28 µM | 0.181 µM | 0.568 µM | 1.02 µM | 3.23 µM | 0.421 µM | 1.6 µM | 0.293 µM | 2.7 µM | 1.02 µM | 2.61 µM | 0.942 µM | 2.58 µM | 1.33 µM | 2.73 µM | 0.234 µM | 0.742 µM | 1.24 µM | 2.56 µM |
| CC(=O)c1c(CBr)n([O-])c2ccccc2[n+]1=O | 2.14 µM | 8.12 µM | 13.6 µM | 27.7 µM | 5.49 µM | 22.6 µM | 13.6 µM | 29.2 µM | 4 µM | 15.7 µM | 15.7 µM | 32.6 µM | 3.78 µM | 13.2 µM | 14.1 µM | 27.3 µM | 16.2 µM | 29.9 µM | 5.51 µM | 19 µM |
| CCN1C(=O)N(CC)C2C1NC(=S)N2/N=C/C=C/c1cccs1 (stereo unspecified) | 0.396 µM | > 100 µM | 0.307 µM | > 100 µM | 0.281 µM | 0.857 µM | 0.569 µM | > 100 µM | 0.62 µM | > 100 µM | 0.658 µM | > 100 µM | 1.32 µM | > 100 µM | 0.62 µM | > 100 µM | 0.342 µM | > 100 µM | 0.923 µM | > 100 µM |
| O=C(Nc1cccc(Cl)c1)c1cc2ccccc2cc1O | 5.58 µM and 8.61 µM | > 100 µM | 2.38 µM and 2.36 µM | > 100 µM | 3.16 µM and 1.61 µM | – | 2.71 µM and 2.06 µM | > 100 µM | 4.07 µM and 4.04 µM | > 100 µM | 1.76 µM and 1.03 µM | – | 3.39 µM and 2.32 µM | > 100 µM | 2.05 µM and 1.76 µM | > 100 µM | 1.74 µM | 19.6 µM and 8.44 µM | 0.34 µM | > 100 µM |
| NC(N)=N/N=C/c1cc(Cl)cc(Cl)c1O | – | > 100 µM | – | 58.9 µM | – | > 100 µM | – | > 100 µM | – | > 100 µM | – | > 100 µM | – | > 100 µM | – | > 100 µM | – | > 100 µM | – | > 100 µM |
| Cc1ccc(Nc2nc(N)c(C(=O)c3ccc(C#N)cc3)s2)cc1 | 0.398 µM | > 100 µM | 0.202 µM | > 100 µM | 0.288 µM | > 61.7 µM | 1.2 µM | > 100 µM | 0.468 µM | > 100 µM | 0.743 µM | > 100 µM | 3.86 µM | > 68.4 µM | 0.617 µM | > 100 µM | 0.434 µM | > 87.3 µM | 0.644 µM | > 100 µM |
| COc1ccc(CNc2c3ccccc3nc3ccccc23)cc1OC | 2.82 µM | 19.2 µM | 2.2 µM | 7.17 µM | 2.96 µM | 10 µM | 2.3 µM | 6.55 µM | 2.25 µM | 25.6 µM | 2.13 µM | 7.47 µM | 2.39 µM | 7.99 µM | 2.36 µM | 8.54 µM | 2.98 µM | 13.6 µM | 1.17 µM | 5.05 µM |
| COc1ccc(C2C(C#N)=C(N)OC3=C2COc2ccc(F)cc23)cc1OC (stereo unspecified) | 47.5 µM | > 100 µM | 18.8 µM | 76.5 µM | 34.2 µM | 70.8 µM | 28.7 µM | > 100 µM | 49.5 µM | > 100 µM | 13.1 µM | 36.7 µM | 24.9 µM | > 100 µM | 20.8 µM | 89.4 µM | 17 µM | 59.2 µM | 43.9 µM | > 100 µM |
| O=C(CN1CCCCC1)N1CCc2c([nH]c3ccccc23)C1c1cccnc1 (stereo unspecified) | – | > 100 µM | – | > 100 µM | – | > 100 µM | – | > 100 µM | – | > 100 µM | – | > 100 µM | – | > 100 µM | – | > 100 µM | – | > 100 µM | – | > 100 µM |
| CC(=O)O[C@@H]1C[C@]2(C(C)C)O[C@@]1(C)[C@@H]1CCC(C)=C1[C@@H]2OC(=O)/C=C/c1ccccc1 | 31.3 µM | > 100 µM | 32.7 µM | > 100 µM | 25.1 µM | > 100 µM | > 100 µM | > 100 µM | 26.9 µM | > 100 µM | 35.3 µM | > 100 µM | 11.6 µM | > 100 µM | 10.4 µM | > 100 µM | 48.4 µM | > 100 µM | 20 µM | > 100 µM |
| CCCS(=O)(=O)Nc1ccc(Nc2c3ccccc3nc3ccccc23)c(OC)c1 | – | 0.499 µM | – | 6.41 µM | – | 0.45 µM | – | 18.2 µM | – | 0.231 µM | – | 8.26 µM | – | 32.4 µM | – | 3.18 µM | – | 4.41 µM | – | 6.47 µM |
| COC(=O)C12C3C4C5(C(=O)OC)C(C1C35C(=O)N(C(C)C)C(C)C)C42C(=O)N(C(C)C)C(C)C (stereo unspecified) | – | > 50 µM | – | > 33.7 µM | – | > 50 µM | – | > 50 µM | – | > 50 µM | – | > 50 µM | – | > 50 µM | – | > 50 µM | – | > 50 µM | – | > 50 µM |
| Nc1ccncc1/C=C1/C(=O)Nc2ccccc21 | 68.3 µM | > 100 µM | 36.5 µM | > 100 µM | 14.5 µM | 39.8 µM | 29 µM | > 100 µM | 37.3 µM | > 100 µM | 31.9 µM | > 100 µM | 33.4 µM | > 100 µM | 18.3 µM | > 100 µM | 47.9 µM | > 100 µM | 18.9 µM | > 100 µM |
| O=C(Nc1cccc(Cl)c1Cl)c1cccc(NC2=C(Cl)C(=O)N(Cc3ccccc3)C2=O)c1 | 14 µM | > 100 µM | 52.1 µM | > 100 µM | 10.5 µM | 30.7 µM | 11.7 µM | 59.6 µM | 3.11 µM | 9.07 µM | 41.4 µM | > 100 µM | 57.7 µM | > 100 µM | 30.2 µM | > 100 µM | 46.2 µM | > 100 µM | 21.1 µM | > 100 µM |
| CN1CCc2c(Sc3ccc(C(=O)NO)cc3)c3ccccc3n2C1 | 1.87 µM | > 24.9 µM | 3.62 µM | 13.4 µM | 2.95 µM | 8.09 µM | 2.84 µM | 9.06 µM | 2.53 µM | 7.01 µM | 1.7 µM | 3.88 µM | 1.92 µM | 8.6 µM | 2.61 µM | 9.78 µM | 1.6 µM | 3.29 µM | 2.33 µM | 14.9 µM |
| Cc1[nH]n(-c2cccc(Cl)c2)c(=O)c1/C=C1\C=Nc2ccc(Br)cc21 | 2.95 µM | 9.84 µM | 5.25 µM | > 100 µM | 4.02 µM | 33.6 µM | 3.04 µM | 9.34 µM | 3.12 µM | 10.9 µM | 6.65 µM | 26.4 µM | 1.59 µM | 2.95 µM | 2.88 µM | 11.9 µM | 2.83 µM | 8.65 µM | 2.08 µM | 6.57 µM |
| O=C(Nc1ccc(Cl)cc1F)c1cc(Br)ccc1O | 2.37 µM | > 27.6 µM | 1.06 µM | > 20.8 µM | 0.919 µM | 3.77 µM | 0.642 µM | > 100 µM | 2.34 µM | 7.87 µM | 0.659 µM | 4.69 µM | 0.732 µM | > 100 µM | 0.788 µM | 8.58 µM | 0.913 µM | > 52.4 µM | 0.461 µM | 3.65 µM |
| N#C/C(=C\c1ccc(O)c(O)c1)C(N)=O | – | 37.7 µM | – | > 100 µM | – | 23.9 µM | – | > 100 µM | – | 38.6 µM | – | 93.8 µM | – | > 100 µM | – | > 100 µM | – | > 100 µM | – | > 100 µM |
| CC(=O)OCC1OC([S-])C(OC(C)=O)C(OC(C)=O)C1OC(C)=O.CC[PH+](CC)CC.CC[PH+](CC)CC.[Au].[Au] (stereo unspecified) | 0.0748 µM | 0.277 µM | 0.165 µM | 0.452 µM | – | 0.0214 µM | 0.306 µM | 1.09 µM | 0.163 µM | 0.52 µM | 0.245 µM | 1.07 µM | 0.506 µM | 1.88 µM | 0.567 µM | 1.78 µM | 0.149 µM | 0.306 µM | 1.6 µM | 2.98 µM |
| NC1CCCC[C@H]1N.N[C@@H]1CCCC[C@@H]1N.O=C(P(=O)([O-])[O-])P(=O)([O-])[O-].[Pt+4].[Pt+4] | 14.1 µM | > 100 µM | 63.8 µM | > 100 µM | 18.3 µM | > 100 µM | > 100 µM | > 100 µM | 16 µM | > 100 µM | > 100 µM | > 100 µM | > 100 µM | > 100 µM | > 100 µM | > 100 µM | > 100 µM | > 100 µM | > 100 µM | > 100 µM |
| Nc1nc(Nc2ccccc2)c2ncn(Cc3cc4c(cc3Br)OCO4)c2n1 | 0.0431 µM | – | 0.0416 µM | 5.48 µM | 0.0358 µM | 1.26 µM | 0.105 µM | 60.4 µM | 0.196 µM | > 100 µM | 0.0187 µM | > 100 µM | 0.326 µM | 55.1 µM | 0.407 µM | > 100 µM | 0.12 µM | 1.45 µM | 0.129 µM | > 100 µM |
| NC(=O)C(=CNc1nc(-c2ccc(Cl)c(Cl)c2)cs1)C(N)=O | 20.4 µM | > 100 µM | 84.7 µM | > 100 µM | 42.8 µM | > 100 µM | 32.6 µM | > 100 µM | 48.7 µM | > 100 µM | > 100 µM | > 100 µM | 62.4 µM | > 100 µM | > 100 µM | > 100 µM | 65 µM | > 100 µM | 12.1 µM | > 100 µM |
| CC(C)(C)N1CC2(CCCCC2)C1=O | – | > 100 µM | – | > 100 µM | – | > 100 µM | – | > 100 µM | – | > 100 µM | – | > 100 µM | – | > 100 µM | – | > 100 µM | – | > 100 µM | – | > 100 µM |
| COc1ccccc1/C=C/c1cnccn1 | – | > 10 µM | – | > 10 µM | – | > 10 µM | – | > 10 µM | – | > 10 µM | – | > 10 µM | – | > 10 µM | – | > 10 µM | – | > 10 µM | – | > 10 µM |
